Test results: PMC5678437, “A new antagonist for CCR4 attenuates allergic lung inflammation in a mouse model of asthma” (Scientific Reports, 2017)
Where two headings read alike, the source gives them in different places.

Columns and labels:
CCR4 = biological target: T1, CCR4 (Homo sapiens, UniProt P51679); assay: Radio ligand competition binding assay on CCR4 cell membrane extract; conditions: HEK293 CCR4 cell membrane extract, 4 °C, 24 h
T1 construct: expressed in transfected cells; cell membrane extract
T1 sequence (P51679 1-360): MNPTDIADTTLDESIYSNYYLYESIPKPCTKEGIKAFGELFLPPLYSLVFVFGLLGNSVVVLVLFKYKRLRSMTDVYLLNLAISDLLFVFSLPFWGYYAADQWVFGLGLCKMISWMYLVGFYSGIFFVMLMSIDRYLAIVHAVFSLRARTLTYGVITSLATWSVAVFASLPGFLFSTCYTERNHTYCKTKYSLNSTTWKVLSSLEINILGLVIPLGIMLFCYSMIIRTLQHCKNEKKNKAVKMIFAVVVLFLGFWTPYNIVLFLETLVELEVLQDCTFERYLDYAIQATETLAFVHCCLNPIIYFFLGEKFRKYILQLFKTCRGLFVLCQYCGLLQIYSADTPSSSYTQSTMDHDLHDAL
Experimental: A HEK293 cell line stably expressing CCR4-enhanced green fluorescent protein was established. CCL22, CCL17 and C27 were labeled with [^125I]. For competition binding assays, equivalent quantities of cell membrane extract and [^125I]-CCL22, [^125I]-CCL17 and [^125I]-C27 were incubated with varying quantities of unlabeled compound 8a, compound 6b and compound 22. All reactions were incubated at 4 °C for 24 h. After the binding step, 25% polyethylene glycol (6000–8000) and 0.5% human g-globulin were added, and the mixture was incubated at room temperature for 15 min. Binding complexes were obtained by centrifuging the mixture at 3500 rpm for 20 min at 4 °C, and radioactivity was evaluated. Results were corrected for “blank” background radiation, defined as the radioactivity precipitated by polyethylene glycol–g-globulin from the same amount of radioactive ligand in binding buffer in the absence of cells.

CCR7 = biological target: T2, CCR7 (Homo sapiens, UniProt P32248); assay: Chemotaxis assay for receptor specificity, HEK293-CCR7; assay type: cell-based; conditions: compound as chemoattractant in lower chamber, 0.2, 1, 5, 25 μM
T2 construct: expressed in transfected cells; host or cells: HEK293, pcDB-CCR7 plasmid made in the authors' laboratory
T2 sequence (P32248 25-378): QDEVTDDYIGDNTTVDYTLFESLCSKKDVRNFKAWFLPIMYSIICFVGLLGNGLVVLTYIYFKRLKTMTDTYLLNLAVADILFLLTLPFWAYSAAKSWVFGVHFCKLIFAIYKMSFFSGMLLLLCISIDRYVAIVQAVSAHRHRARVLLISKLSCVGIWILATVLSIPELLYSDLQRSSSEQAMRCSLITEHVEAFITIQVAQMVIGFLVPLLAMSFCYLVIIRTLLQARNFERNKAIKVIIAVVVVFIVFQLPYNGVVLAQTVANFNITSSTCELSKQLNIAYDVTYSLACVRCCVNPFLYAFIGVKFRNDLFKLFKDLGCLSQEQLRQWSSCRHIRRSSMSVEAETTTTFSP
Experimental: HEK293 cells were transfected with different chemokine receptors. Compound 8a with DMSO was diluted to 0.2 mM, 1 mM, 5 mM and 25 mM, and then we used RPMI 1640 medium containing 0.1% BSA for dilution. The final concentration is: 0.2 μM, 1 μM, 5 μM and 25 μM. DMSO was also diluted 1000-fold with 0.1% BSA RPMI 1640 medium. Chemokines was also diluted to an appropriate concentration. The dilutions of Compound 8a, 1‰ DMSO, the corresponding chemokines of different receptors and 0.1% BSA RPMI 1640 medium were placed in the lower chambers (27.5 μl/well). The transfected HEK293 cells were resuspended in the same medium at a density of 1 × 10^6 cells/ml and added to the upper chambers (55 μl/well).

[1] = system: OVA-induced asthmatic mice; assay: Lung histology (H&E) inflammation score in OVA-induced asthmatic mice; assay type: in vivo, BALB/c mice; conditions: 5 mg inhaled aerosol; vs OVA mice treated with vehicle
Experimental: Male BALB/c 6 week old mice were purchased from the Experimental Animal Center of Zhejiang University. All mice were raised in a specific pathogen-free animal facility. All animal experiments were carried out according to the guidelines for the care and use of laboratory animals and were approved by the ethics committee of Zhejiang University and Peking University, China.
Mice were sensitized and challenged with chicken egg OVA (sigma-Aldrich, St Louis, MO, USA) as described in details previously. Briefly, after sensitized by intraperitoneal injection of 100 μl (80 μg) OVA in 100 μl alum (Pierce, Rockford, IL, USA) on days 0 and 14, mice were exposure to 1% OVA aerosols for 40 min on days 24–26. Control mice were injected intraperitoneally with saline and exposed to saline aerosols.
Compound 8a was dissolved in saline with DMSO (0.5%). Half an hour before each OVA challenge, the groups of mice treated with various doses of compound 8a (0.2, 1, 5 mg) inhaled aerosolized compound 8a for 45 min on days 24–26. Compound 8a aerosols were produced by using a Plexiglas chamber and ultrasonic nebulizer. […]
After sacrificed, the lungs were fixed in formalin overnight. […] Inflammation was scored according to published guidelines. And PAS-stained goblet cells in airway epithelium were quantified as described previously.

IC50 (CCR4; [125I]-C27, read-out: IC50, competitive binding with C27 to CCR4): 62 nM
IC50 (CCR4; [125I]-CCL17, read-out: IC50, competitive binding with CCL17 to CCR4): 151 nM
IC50 (CCR4; [125I]-CCL22, read-out: IC50, competitive binding with CCL22 to CCR4): 272 nM
chemotaxis effect of the compound on HEK293-CCR7 (CCR7): didn’t exert chemotaxis effects
Compound: O=C(C1CCCCN1)N1CCN(c2nc(Cl)cc(NCc3ccc(Cl)cc3Cl)n2)CC1 (centres unmarked) [compound 8a, {4-[4-Chloro-6-(2,4-dichloro-benzylamino)-pyrimidin-2-yl]-piperazin-1-yl}-piperidin-2-yl-methanone]
peribronchial and perivascular inflammation (H&E histology) [1]: comparable inhibitory effect
